Like-named read-outs stand apart in the source and are kept apart here.
How the values were obtained:
[1] = biological target: GSK3b (GST-full length GSK3b) (Homo sapiens (Human), UniProt P49841); assay: GSK3b TR-FRET kinase assay; format: biochemical
Experimental: (§1) TR-FRET Assay: The assay was performed in a white, 384 well, low volume, flat bottom plate (Grenier). After a 30 minute preincubation in assay buffer with the indicated concentration of compound, the kinase activity was initiated by the addition of the substrates. 1 nM GSK3α (GST-full length GSK3α [SignalChem G08-10G]) or 1 nM GSK3b (GST-full length GSK3b: [SignalChem G08-9G]) were then incubated at ambient temperature for 100 minutes in 10 μL of 50 mM Tris, pH 7.5, 20 mM MgCl2, 0.05 mM DTT, 100 μg/mL BSA and 1% DMSO, with 200 nM biotinylated peptide substrate (biotinylated and S645 phosphorylated glycogen synthase 631-650) and either 4 μM ATP (GSK3α, Table 16) or 2 μM ATP (GSK3b, Table 16) or 1 mM ATP (Table 17). The kinase activity was quenched with 2 μL of 250 mM EDTA. A 10 μL volume of 40 nM Strepavidin-d2, 2 nM Tb^2+-pSer641 antibody in TR-FRET Detection Buffer (Invitrogen) was then added. After 60 min at room temperature the plate was read on Envision plate reader using Ex: 340 nm, Em: 615 nm and […]. The normalized 665/615 Signal ratio versus log compound concentration was analyzed by XLFIT to yield IC50 values.

[2] = biological target: GSK3α (GST-full length GSK3α) (Homo sapiens (Human), UniProt P49840); assay: GSK3α TR-FRET kinase assay; format: biochemical
Experimental: as §1

[3] = 1 nM GSK3b, 2 μM ATP, 30 minute preincubation, geometric mean, read-out: GSK3-B TR-FRET BIOCHEMICAL (TR-FRET), GMean, IC50
[4] = 1 nM GSK3α, 4 μM ATP, 30 minute preincubation, geometric mean, read-out: GSK3-A TR-FRET BIOCHEMICAL (TR-FRET), GMean, IC50
[5] = read-out: GSK3-B (TR-FRET 1 mM ATP), GMean, IC50, 1 mM ATP, geometric mean
[6] = read-out: GSK3-A (TR-FRET 1 mM ATP), GMean, IC50, 1 mM ATP, geometric mean

Sequence of GSK3α (GST-full length GSK3α) (P49840 whole entry): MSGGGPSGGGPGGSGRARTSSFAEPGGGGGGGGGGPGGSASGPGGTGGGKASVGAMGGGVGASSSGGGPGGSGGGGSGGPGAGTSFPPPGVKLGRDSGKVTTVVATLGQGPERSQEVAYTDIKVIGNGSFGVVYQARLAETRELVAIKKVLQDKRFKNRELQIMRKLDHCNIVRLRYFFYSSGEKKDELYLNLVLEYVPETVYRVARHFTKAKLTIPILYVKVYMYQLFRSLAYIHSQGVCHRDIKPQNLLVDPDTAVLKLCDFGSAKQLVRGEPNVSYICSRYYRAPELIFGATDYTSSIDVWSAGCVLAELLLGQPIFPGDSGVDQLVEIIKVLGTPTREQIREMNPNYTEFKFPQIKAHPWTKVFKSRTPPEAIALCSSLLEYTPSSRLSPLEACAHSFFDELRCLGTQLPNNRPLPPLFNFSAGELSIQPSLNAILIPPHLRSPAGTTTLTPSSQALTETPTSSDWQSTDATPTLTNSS
Sequence of GSK3b (GST-full length GSK3b) (P49841 whole entry): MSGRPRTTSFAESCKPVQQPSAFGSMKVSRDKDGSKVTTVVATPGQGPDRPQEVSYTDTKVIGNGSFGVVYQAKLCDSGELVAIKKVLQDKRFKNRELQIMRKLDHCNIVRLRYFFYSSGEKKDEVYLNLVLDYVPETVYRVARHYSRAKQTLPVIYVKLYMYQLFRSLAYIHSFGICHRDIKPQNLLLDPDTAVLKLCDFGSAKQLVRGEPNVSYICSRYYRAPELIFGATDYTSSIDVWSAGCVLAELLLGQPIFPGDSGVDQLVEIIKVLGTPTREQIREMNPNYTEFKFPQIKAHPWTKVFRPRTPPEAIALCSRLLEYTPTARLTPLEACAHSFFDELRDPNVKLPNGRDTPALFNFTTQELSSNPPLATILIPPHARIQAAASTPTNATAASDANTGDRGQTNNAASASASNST

Compound	IC50 [1, 3] [nM]	IC50 [2, 4] [nM]	IC50 [1, 5] [nM]	IC50 [2, 6] [nM]	IC50 ([1]; 1 nM GSK3b, 2 μM ATP, 30 minute preincubation, Table 16, read-out: GSK3-B TR-FRET BIOCHEMICAL (TR-FRET)) [nM]	IC50 ([2]; 1 nM GSK3α, 4 μM ATP, 30 minute preincubation, Table 16, read-out: GSK3-A TR-FRET BIOCHEMICAL (TR-FRET)) [nM]
C[C@H]1CC(=O)C2=C(C1)Nc1n[nH]cc1[C@]2(C)c1ccccc1 [Compound 789332]	100 to 1000	100 to 1000	–	–	–	–
C[C@@H]1CC(=O)C2=C(C1)Nc1n[nH]cc1[C@@]2(C)c1ccccc1 [Compound 789333]	> 5000	> 5000	–	–	–	–
C[C@H]1CC(=O)C2=C(C1)Nc1n[nH]cc1[C@@]2(C)c1ccccc1 [Compound 789334]	1000 to 5000	100 to 1000	–	–	–	–
CC1(C)CC(=O)C2=C(C1)Nc1n[nH]cc1C2(C)c1cc(Cl)cc(Cl)c1 (stereo not shown) [Compound 789337]	1000 to 5000	100 to 1000	–	–	–	–
CC[C@@]1(c2ccc(C)cc2)C2=C(CC(C)(C)CC2=O)Nc2n[nH]cc21 [Compound 789457]	1000 to 5000	100 to 1000	–	–	–	–
CC[C@]1(c2ccc(C)cc2)C2=C(CC(C)(C)CC2=O)Nc2n[nH]cc21 [Compound 789458]	> 5000	> 5000	–	–	–	–
CCC1(c2ccccc2)C2=C(CC(C)(C)CC2=O)Nc2n[nH]c(Br)c21 (stereo not shown) [Compound 789459]	≤ 100	≤ 100	–	–	–	–
CC1(c2ccccc2)C2=C(CC3(CCCC3)CC2=O)Nc2n[nH]cc21 (stereo not shown) [Compound 789460]	100 to 1000	100 to 1000	–	–	–	–
CC1(C)CC(=O)C2=C(C1)Nc1n[nH]cc1C2(c1ccccc1)c1ccccc1 [Compound 789461]	> 5000	1000 to 5000	–	–	–	–
CCC1(c2ccccc2)C2=C(CCCC2=O)Nc2n[nH]cc21 (stereo not shown) [Compound 789497]	> 5000	1000 to 5000	–	–	–	–
CC1(C)CC(=O)C2=C(C1)Nc1n[nH]cc1C2(C)c1cccc(-c2ccccc2)c1 (stereo not shown) [Compound 789513]	100 to 1000	100 to 1000	–	–	–	–
CCC1(c2cccc(-c3ccccc3)c2)C2=C(CC(C)(C)CC2=O)Nc2n[nH]cc21 (stereo not shown) [Compound 789514]	100 to 1000	100 to 1000	–	–	–	–
CCC1(c2cccc(C)c2)C2=C(CC(C)(C)CC2=O)Nc2n[nH]cc21 (stereo not shown) [Compound 789560]	100 to 1000	–	> 5000	1000 to 5000	–	–
CC[C@]1(c2cccc(C)c2)C2=C(CC(C)(C)CC2=O)Nc2n[nH]cc21 [Compound 789561]	> 5000	1000 to 5000	–	–	–	–
CC[C@@]1(c2ccccc2)C2=C(CC3(CCCC3)CC2=O)Nc2n[nH]cc21 [Compound 789562]	100 to 1000	≤ 100	–	–	–	–
CC[C@]1(c2ccccc2)C2=C(CC3(CCCC3)CC2=O)Nc2n[nH]cc21 [Compound 789563]	> 5000	> 5000	–	–	–	–
CCC1(c2cccc(Cl)c2)C2=C(CC(C)(C)CC2=O)Nc2n[nH]c(Br)c21 (stereo not shown) [Compound 789564]	≤ 100	≤ 100	–	–	–	–
CCC1(c2cccc(Cl)c2)C2=C(CC(C)(C)CC2=O)Nc2n[nH]c(C)c21 (stereo not shown) [Compound 790611]	> 5000	> 5000	–	–	–	–
CC[C@@]1(c2ccccc2)C2=C(CC3(CC3)CC2=O)Nc2n[nH]cc21 [Compound 790615]	100 to 1000	≤ 100	–	–	–	–
CC[C@]1(c2ccccc2)C2=C(CC3(CC3)CC2=O)Nc2n[nH]cc21 [Compound 790616]	> 5000	> 5000	–	–	–	–
CCC1(c2cccc(C(F)(F)F)c2)C2=C(CC3(CCCC3)CC2=O)Nc2n[nH]cc21 (stereo not shown) [Compound 790617]	≤ 100	≤ 100	–	–	–	–
CCC1(c2ccn(C)n2)C2=C(CC(C)(C)CC2=O)Nc2n[nH]cc21 (stereo not shown) [Compound 790619]	> 5000	1000 to 5000	–	–	–	–
CC1(C)CC(=O)C2=C(C1)Nc1n[nH]c(C(F)(F)F)c1C21CCCOc2ccccc21 (stereo not shown) [Compound 790632]	> 5000	> 5000	–	–	–	–
CC1(C)CC(=O)C2=C(C1)Nc1n[nH]cc1C21CCCC1 [Compound 790666]	–	–	–	–	≤ 100	≤ 100
CC1(C)CC(=O)C2=C(C1)Nc1n[nH]cc1C2(C)c1cccc(-c2ccncc2)c1 (stereo not shown) [Compound 790730]	100 to 1000	≤ 100	–	–	–	–
CCC1(c2cccc(Br)c2)C2=C(CC(C)(C)CC2=O)Nc2n[nH]cc21 (stereo not shown) [Compound 790733]	≤ 100	≤ 100	1000 to 5000	100 to 1000	–	–

— patent US20250313563A1, “GLYCOGEN SYNTHASE KINASE 3 INHIBITORS AND USES THEREOF” (The Broad Institute, Inc., priority 2022, published 2025)
